Data: US10890586B2, “Methods and kits for assaying endoglycosidase activity” (Bio-Techne Corporation, priority 2016, dated 2021)

T1: HPSE (Homo sapiens, UniProt Q9Y251)
T1 construct: purchased Bio-Techne
T1 sequence (Q9Y251 158-543 limits assumed): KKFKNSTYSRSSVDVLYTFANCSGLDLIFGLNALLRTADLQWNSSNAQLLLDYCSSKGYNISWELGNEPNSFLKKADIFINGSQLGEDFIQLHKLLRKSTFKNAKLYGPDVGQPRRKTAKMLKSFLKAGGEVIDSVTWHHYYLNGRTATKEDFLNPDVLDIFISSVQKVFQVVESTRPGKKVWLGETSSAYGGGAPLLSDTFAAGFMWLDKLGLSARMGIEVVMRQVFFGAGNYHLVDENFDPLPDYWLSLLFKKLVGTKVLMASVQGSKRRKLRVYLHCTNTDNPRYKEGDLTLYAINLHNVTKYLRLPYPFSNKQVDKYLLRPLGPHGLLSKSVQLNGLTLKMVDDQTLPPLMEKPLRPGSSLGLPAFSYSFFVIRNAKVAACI
T1 sequence (Q9Y251 36-109 limits assumed): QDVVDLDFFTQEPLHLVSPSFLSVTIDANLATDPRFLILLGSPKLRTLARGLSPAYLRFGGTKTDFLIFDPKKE


Columns and labels:
HPSE = target: T1, HPSE; experiment: HPSE inhibitor study (ELISA-based HPSE activity assay with labeled rhSynd4); assay type: biochemical; conditions: 10 ng HPSE, 50 mM NaAc pH 4.0, 37° C. for two hours, OD 450
Protocol: In order to prepare the sample for the assay, the goat anti-human Syndecan-4 capture antibody was diluted to a working concentration in PBS without carrier protein. A 96-well microplate was immediately coated with 100 μL per well of the diluted capture antibody. The plate was sealed and incubated overnight at room temperature. Each well was subsequently aspirated and washed with wash buffer, repeating the process two times for a total of three washes. The wash buffer is 25 mM Tris (pH 7.6), 137 mM NaCl, and 0.01% Tween (TBST). Each well was washed by filling each well with 400 μL of wash buffer using a squirt bottle, manifold dispenser, or autowasher. After the last wash, any remaining wash buffer was removed by aspirating or by inverting the plate and blotting it against clean paper towels. The microplate was then blocked by adding 300 μL of reagent diluent to each well and incubating the microplate for a minimum of 1 hour. The microplate was then aspirated/washed as described above for a total of three washes, and the microplate was thus ready for sample addition.
To perform the ELISA assay, 100 μL of the HPSE treated mixture diluted with 1% BSA in PBS buffer were added per well. The HPSE treated mixture was diluted such that the concentration of rhSynd4 was 25 ng/ml. […]
The absorbance (OD 450) for each of the three compounds was determined using a microplate reader set to 450 nm. […]

[1] = target: goat anti-human lumican capture antibody; experiment: ELISA detection of KS non-reducing end labeled recombinant lumican; assay type: binding; conditions: 0-100 ng labeled lumican, 80 ng/well capture antibody, OD 450
Protocol: This study confirmed that the endoglycosidase activity assay of this disclosure is applicable to other endoglycosidases in addition to HPSE. An ELISA assay was first used to detect labeled recombinant lumican. The non-reducing ends of KS chains on recombinant human lumican were labeled through in vitro incorporation of GlcNAz by B3GNT2 (a KS specific GlcNAc transferase) according to the procedure described in Example 2 above. Increasing amounts of the labeled lumican (0-100 ng) were subsequently immobilized on a 96-well plate coated with 80 ng/well of goat anti-human lumican capture antibody. A DuoSet ELISA kit of Human Lumican was used to perform an ELISA assay similarly to the procedure described in Example 4 above. The absorbance (OD 450) of each well was determined using a microplate reader set to 450 nm. FIG. 8 is a graph of the OD 450 of increasing amounts of labeled lumican. The data was fit to the equation y=Cx/(Kd+x) to obtain curve 802, where Kd is the ligand-receptor binding affinity (dissociation constant for lumican bound to the capture antibody).

[2] = target: goat anti-human Syndecan-4 capture antibody; experiment: ELISA detection of HS non-reducing end labeled rhSynd4; assay type: binding; conditions: 0-50 ng labeled rhSynd4, 80 ng/well capture antibody, OD 450, fit y=Cx/(Kd+x)
Protocol: In order to establish a high throughput compatible method for HS detection, an ELISA assay was used to attempt to detect labeled rhSynd4. The non-reducing ends of HS chains on rhSynd4 were labeled according to Example 2 above. Increasing amounts of the labeled rhSynd4 (0-50 ng) were subsequently immobilized on a 96-well plate coated with 80 ng/well of goat anti-human Syndecan-4 capture antibody. The Syndecan-4 DuoSet kit was used to perform an ELISA assay (described in detail in Example 4 below). The absorbance (OD 450) of each well was determined using a microplate reader set to 450 nanometers (nm).
FIG. 4 is a graph of the OD 450 of increasing amounts of labeled rhSynd4. The data was fit to the equation y=Cx/(Kd+x) to obtain curve 402, where Kd is the ligand-receptor binding affinity (dissociation constant for rhSynd4 bound to the capture antibody).

EC50 (HPSE) [µg/mL] | Molecule | further results
0.39 | chondroitin sulfate | 
0.12 | heparin | 
 | labeled lumican: recombinant human lumican with KS non-reducing ends labeled with GlcNAz by B3GNT2 | Kd (dissociation constant for lumican bound to the capture antibody) [1]: 7.58 ng
 | labeled rhSynd4: recombinant human Syndecan-4 with HS non-reducing ends labeled with GlcNAz and biotin by click chemistry (protein, UniProt P31431 19-198, looked up, HS ends labeled GlcNAz and biotin, recombinant human Syndecan-4 with HS non-reducing ends labeled with GlcNAz and biotin by click chemistry) Syndecan-4: ESIRETEVIDPQDLLEGRYFSGALPDDEDVVGPGQESDDFELSGSGDLDDLEDSMIGPEVVHPLVPLDNHIPERAGSGSQVPTEPKKLEENEVIPKRISPVEESEDVSNKVSMSSTVQGSNIFERTEVLAALIVGGIVGILFAVFLILLLMYRMKKKDEGSYDLGKKPIYKKAPTNEFYA | Kd (dissociation constant for rhSynd4 bound to the capture antibody) [2]: 3.4 ng
